Common to all, as to type: biochemical
The target in test [1] is T1, cathepsin K (Homo sapiens, UniProt P43235).
T1 sequence (P43235 115-329): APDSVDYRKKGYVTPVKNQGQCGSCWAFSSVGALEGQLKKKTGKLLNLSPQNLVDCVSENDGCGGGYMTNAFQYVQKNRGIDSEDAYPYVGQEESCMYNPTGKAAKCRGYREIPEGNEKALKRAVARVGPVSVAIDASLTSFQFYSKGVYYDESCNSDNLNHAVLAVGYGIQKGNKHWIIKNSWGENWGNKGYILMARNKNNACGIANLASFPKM
In words: Inhibitory activity assay against cathepsin K (enzyme assay). The conditions noted are these: Z-Phe-Arg-AMC 10 μM, enzyme 1 nM, pH 5.5, 30 minutes. In a few lines:
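Fluorogenic assay with 1 nM cathepsin K and 10 μM Z-Phe-Arg-AMC in pH 5.5 buffer (50 mM MES, 2 mM DTT, 2.5 mM EDTA, 0.01% Triton X-100, 10% DMSO). Ten compound concentrations, 10.0 to 0.000508 μM; 30 min reaction, ex 355/em 460 nm; IC50 by 4-parameter logistic fit.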

Test [2] has as its target cathepsin B (Homo sapiens, UniProt P07858). Description: Inhibitory activity assay against cathepsin B (enzyme assay). The conditions noted are these: Z-Arg-Arg-AMC 40 μM, enzyme 1 nM, pH 6.0, 90 minutes. In a few lines: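 1 nM enzyme with 40 μM Z-Arg-Arg-AMC and compound (10.0 μM down to 0.000508 μM, 10 points) in pH 6.0 buffer of 50 mM MES, 5 mM DTT, 2.5 mM EDTA, 0.005% Polysorbate 20, 10% DMSO. Fluorescence (340/460 nm) read after 90 min; IC50 by 4-parameter logistic fit.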

In test [3] the target is cathepsin L (Homo sapiens, UniProt P07711). Description: Inhibitory activity assay against cathepsin L (enzyme assay). The conditions noted are these: Z-Phe-Arg-AMC 2 μM, enzyme 3 nM, pH 5.5, 30 minutes. In a few lines:
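Enzyme at 3 nM with 2 μM Z-Phe-Arg-AMC in 50 mM MES pH 5.5, 2.5 mM DTT, 2.5 mM EDTA, 0.005% Polysorbate 20, 10% DMSO; 30 min reaction, AMC fluorescence 340/460 nm. Ten-point series 10.0 μM to 0.000508 μM; IC50 by 4-parameter logistic fit.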

The target in test [4] is cathepsin S (Homo sapiens, UniProt P25774). Description: Inhibitory activity assay against cathepsin S (enzyme assay). To be noted: Z-Phe-Arg-AMC 70 μM, enzyme 3 nM, pH 6.5, 45 minutes. In a few lines: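 Cathepsin S (3 nM final) with Z-Phe-Arg-AMC substrate (70 μM final) in pH 6.5 buffer of 50 mM MES, 2.5 mM DTT, 1.0 mM EDTA, 0.001% BSA, 10% DMSO; compound 10.0 μM down to 0.000508 μM, 10 points. Fluorescence (ex 340/em 460 nm) after 45 min; IC50 by 4-parameter logistic fit.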
Chain of cathepsin S (P25774 115-331, species assumed): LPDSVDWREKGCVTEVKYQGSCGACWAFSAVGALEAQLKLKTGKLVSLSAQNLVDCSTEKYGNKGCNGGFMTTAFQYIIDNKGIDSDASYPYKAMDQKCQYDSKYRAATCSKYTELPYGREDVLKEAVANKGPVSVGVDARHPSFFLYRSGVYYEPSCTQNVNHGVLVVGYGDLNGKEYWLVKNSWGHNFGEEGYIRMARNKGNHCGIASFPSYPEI

Chain of cathepsin L (P07711 114-333, species assumed): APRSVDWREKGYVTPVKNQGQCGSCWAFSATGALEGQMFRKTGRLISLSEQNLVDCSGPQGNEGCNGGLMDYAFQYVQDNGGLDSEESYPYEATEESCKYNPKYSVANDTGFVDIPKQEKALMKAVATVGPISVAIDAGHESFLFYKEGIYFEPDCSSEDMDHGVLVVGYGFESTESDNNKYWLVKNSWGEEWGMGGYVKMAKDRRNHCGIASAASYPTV

For `N#Cc1nccc(C2(NC(=O)Nc3ccc(-c4ccc(S(=O)(=O)NC5CC5)cc4)cc3)CCCCC2)n1` [Example 148, 4′-(3-(1-(2-cyanopyrimidin-4-yl)cyclohexyl)ureido)-N-cyclopropyl-[1,1′-biphenyl]-4-sulfonamide], the IC50 was 16.8 nM in test [1], more than 10000 nM in test [2], more than 10000 nM in test [3] and 8580 nM in test [4].

Take `CN(C(=O)NC1(c2ccnc(C#N)n2)CCCCC1)c1ccc(F)c(C(F)(F)F)c1` [Example 105, 3-(1-(2-cyanopyrimidin-4-yl)cyclohexyl)-1-(4-fluoro-3-(trifluoromethyl)phenyl)-1-methylurea]: the IC50 was 2.1 nM in test [1], more than 10000 nM in test [2], 2980 nM in test [3] and 3630 nM in test [4].

On to `N#Cc1nccc(C2(NC(=O)Nc3cc(C(F)(F)F)ccc3C(F)(F)F)CCCCC2)n1` [Example 103, 1-(2,5-bis(trifluoromethyl)phenyl)-3-(1-(2-cyanopyrimidin-4-yl)cyclohexyl)urea], for which the IC50 in test [1] is 4.6 nM; in test [2] it was more than 10000 nM; in test [3] it was more than 10000 nM; in test [4], more than 10000 nM.

Take `N#Cc1nccc(C2(NC(=O)Nc3ccc(C(F)(F)F)cc3)CCCCC2)n1` [Example 90, 1-(1-(2-cyanopyrimidin-4-yl)cyclohexyl)-3-(4-(trifluoromethyl)phenyl)urea]: the concentration for half-maximal inhibition (IC50) in test [1] is 68.2 nM; in test [2], more than 10000 nM; in test [3] it was more than 10000 nM; in test [4], more than 10000 nM.

Consider `C#Cc1ccc(-c2ccc(NC(=O)NC3(c4ccnc(C#N)n4)CCCCC3)cc2)cc1` [Example 122, 1-(1-(2-cyanopyrimidin-4-yl)cyclohexyl)-3-(4′-ethynyl-[1,1′-biphenyl]-4-yl)urea], for which the IC50 in test [1] was 16.9 nM; in test [2] it was more than 10000 nM; in test [3] it was more than 10000 nM; in test [4], more than 10000 nM.

Take `CC(=O)NCc1ccc(-c2ccc(NC(=O)NC3(c4ccnc(C#N)n4)CCCCC3)cc2F)cc1` [Example 165, N-((4′-(3-(1-(2-cyanopyrimidin-4-yl)cyclohexyl)ureido)-2′-fluoro-[1,1′-biphenyl]-4-yl)methyl)acetamide]: the concentration for half-maximal inhibition (IC50) was 5.7 nM in test [1], more than 10000 nM in test [2], more than 10000 nM in test [3] and more than 10000 nM in test [4].

As for `N#Cc1nccc(C2(NC(=O)Nc3cc(C(F)(F)F)ccc3F)CCCCC2)n1` [Example 97, 1-(1-(2-cyanopyrimidin-4-yl)cyclohexyl)-3-(2-fluoro-5-(trifluoromethyl)phenyl)urea], the IC50 in test [1] is 4.9 nM; in test [2] it was more than 10000 nM; in test [3], more than 10000 nM; in test [4] it was more than 10000 nM.

For `N#Cc1nccc(C2(NC(=O)Nc3cc(C(F)(F)F)ccc3CO)CCCCC2)n1` [Example 108, 1-(1-(2-cyanopyrimidin-4-yl)cyclohexyl)-3-(2-(hydroxymethyl)-5-(trifluoromethyl)phenyl)urea], the concentration for half-maximal inhibition (IC50) in test [1] was 6.9 nM; in test [2], more than 10000 nM; in test [3], 2270 nM; in test [4] it was 9850 nM.

For the compound `Cc1ccccc1COC(=O)NC1(c2ccnc(C#N)n2)CCCCC1` [Example 17, 2-methylbenzyl (1-(2-cyanopyrimidin-4-yl)cyclohexyl)carbamate], the IC50 was 58.4 nM in test [1], more than 10000 nM in test [2], 1420 nM in test [3] and more than 10000 nM in test [4].

On to `N#Cc1nccc(C2(NC(=O)Nc3ccc(-c4ccccc4C(F)(F)F)c(C(F)(F)F)c3)CCCCC2)n1` [Example 176, 1-(2,2′-bis(trifluoromethyl)-[1,1′-biphenyl]-4-yl)-3-(1-(2-cyanopyrimidin-4-yl)cyclohexyl)urea], for which the concentration for half-maximal inhibition (IC50) in test [1] was 122 nM; in test [2] it was more than 10000 nM; in test [3], more than 10000 nM; in test [4] it was 5840 nM.

A word on the IC50: it is the concentration that inhibits the measured activity by half.

(Values after patent US11299478B2, “2-cyanopyrimidin-4-yl carbamate or urea derivative or salt thereof, and pharmaceutical composition including same” (HANLIM PHARMACEUTICAL CO., LTD., priority 2018, dated 2022).)
